Where a name gives a salt, the structure may show the parent alone.
Target: T1, Estrogen Receptor (ERα) in MCF-7 human ductal carcinoma breast cell line (Homo sapiens, UniProt P03372)
T1 construct: endogenous in cells; host or cells: MCF-7
T1 sequence (P03372 1-595): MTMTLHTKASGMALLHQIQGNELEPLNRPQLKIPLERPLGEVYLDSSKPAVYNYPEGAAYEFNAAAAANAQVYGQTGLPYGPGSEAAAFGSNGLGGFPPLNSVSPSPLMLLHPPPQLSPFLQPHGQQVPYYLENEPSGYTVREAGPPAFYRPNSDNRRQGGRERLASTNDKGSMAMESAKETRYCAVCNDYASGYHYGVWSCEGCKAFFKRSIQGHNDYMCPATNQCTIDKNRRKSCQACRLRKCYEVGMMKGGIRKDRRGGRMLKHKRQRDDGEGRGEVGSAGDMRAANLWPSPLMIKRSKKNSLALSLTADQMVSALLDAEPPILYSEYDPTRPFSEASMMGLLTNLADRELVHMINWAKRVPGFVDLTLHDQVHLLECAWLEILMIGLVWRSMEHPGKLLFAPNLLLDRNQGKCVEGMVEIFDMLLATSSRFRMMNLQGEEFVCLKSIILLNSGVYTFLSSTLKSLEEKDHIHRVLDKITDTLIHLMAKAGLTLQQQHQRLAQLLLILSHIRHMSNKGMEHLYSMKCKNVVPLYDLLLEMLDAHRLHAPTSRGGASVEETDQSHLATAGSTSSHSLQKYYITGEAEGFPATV
Assay: MCF-7 ER degradation assay (cell based immuno-fluorescence)
Conditions: MCF-7 cells; for ER degradation ≥ 90% at 0.3 μM: ER degradation by fulvestrant at 0.3 μM is defined as 100%; for DC50: 18-22 hours incubation, 50% reduction of ERα expression, single experiment or average of two or more, read-out: MCF-7 ER degradation IC50
Outline: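 MCF-7 human ductal carcinoma breast cells were seeded at 3.75×10^4 cells per mL (40 μL per well) in 384 well plates with phenol red free DMEM containing 2 mM L-Glutamine and 5% (v/v) Charcoal/Dextran treated foetal calf serum. After overnight culture, compounds were acoustically dispensed, incubated 18-22 hours, then cells were formaldehyde-fixed and immunostained for ERα.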

SMILES | ER degradation ≥ 90% at 0.3 μM | DC50 [nM]
Cc1ncsc1-c1ccc(CNC(=O)[C@@H]2C[C@@H](OC(=O)[C@H](C)NC(=O)[C@@H](N)C(C)C)CN2C(=O)[C@@H](NC(=O)COCCOCCOCCOc2cc(F)c([C@@H]3c4[nH]c5ccccc5c4C[C@@H](C)N3CC(C)(C)F)c(F)c2)C(C)(C)C)cc1 [Example 100, (3R,5S)-1-((S)-2-(2-(2-(2-(2-(3,5-Difluoro-4-((1R,3R)-2-(2-fluoro-2-methylpropyl)-3-methyl-2,3,4,9-tetrahydro-1H-pyrido[3,4-b]indol-1-yl)phenoxy)ethoxy)ethoxy)ethoxy)acetamido)-3,3-dimethylbutanoyl)-5-((4-(4-methylthiazol-5-yl)benzyl)carbamoyl)pyrrolidin-3-yl L-valyl-L-alaninate Formate] | •• | 0.4
Cc1ncsc1-c1ccc(CNC(=O)[C@@H]2C[C@@H](O)CN2C(=O)[C@@H](NC(=O)COCCOCCOCCNC(=O)c2cc(F)c([C@@H]3c4[nH]c5ccccc5c4C[C@@H](C)N3CC(C)(C)F)c(F)c2)C(C)(C)C)cc1 [Example 91, (2S,4R)-1-((S)-15-(tert-Butyl)-1-(3,5-difluoro-4-((1R,3R)-2-(2-fluoro-2-methylpropyl)-3-methyl-2,3,4,9-tetrahydro-1H-pyrido[3,4-b]indol-1-yl)phenyl)-1,13-dioxo-5,8,11-trioxa-2,14-diazahexadecan-16-oyl)-4-hydroxy-N-(4-(4-methylthiazol-5-yl)benzyl)pyrrolidine-2-carboxamide] | •• | 0.3
Cc1ncsc1-c1ccc(CNC(=O)[C@@H]2C[C@@H](O)CN2C(=O)[C@@H](NC(=O)COc2ccc(OCCNC(=O)/C=C/c3cc(F)c([C@@H]4c5[nH]c6ccccc6c5C[C@@H](C)N4CC(C)(C)F)c(F)c3)cc2)C(C)(C)C)cc1 [Example 61, (2S,4R)-1-((S)-2-(2-(4-(2-((E)-3-(3,5-difluoro-4-((1R,3R)-2-(2-fluoro-2-methylpropyl)-3-methyl-2,3,4,9-tetrahydro-1H-pyrido[3,4-b]indol-1-yl)phenyl)acrylamido)ethoxy)phenoxy)acetamido)-3,3-dimethylbutanoyl)-4-hydroxy-N-(4-(4-methylthiazol-5-yl)benzyl)pyrrolidine-2-carboxamide, Trifluoroacetic Acid] | •• | 0.7
Cc1ncsc1-c1ccc(CNC(=O)[C@@H]2C[C@@H](O)CN2C(=O)[C@@H](NC(=O)CCCCNC(=O)/C=C/c2cc(F)c([C@@H]3c4[nH]c5ccccc5c4C[C@@H](C)N3CC(C)(C)F)c(F)c2)C(C)(C)C)cc1 [Example 60, (2S,4R)-1-((S)-2-(5-((E)-3-(3,5-difluoro-4-((1R,3R)-2-(2-fluoro-2-methylpropyl)-3-methyl-2,3,4,9-tetrahydro-1H-pyrido[3,4-b]indol-1-yl)phenyl)acrylamido)pentanamido)-3,3-dimethylbutanoyl)-4-hydroxy-N-(4-(4-methylthiazol-5-yl)benzyl)pyrrolidine-2-carboxamide, Trifluoroacetic Acid] | • | 0.5
CC[C@H](C)[C@H](N)C(=O)O[C@@H]1C[C@@H](C(=O)NCc2ccc(-c3scnc3C)cc2)N(C(=O)[C@@H](NC(=O)COCCOCCOCCOc2cc(F)c([C@@H]3c4[nH]c5ccccc5c4C[C@@H](C)N3CC(C)(C)F)c(F)c2)C(C)(C)C)C1 [Example 99, (3R,5S)-1-((S)-2-(2-(2-(2-(2-(3,5-Difluoro-4-((1R,3R)-2-(2-fluoro-2-methylpropyl)-3-methyl-2,3,4,9-tetrahydro-1H-pyrido[3,4-b]indol-1-yl)phenoxy)ethoxy)ethoxy)ethoxy)acetamido)-3,3-dimethylbutanoyl)-5-((4-(4-methylthiazol-5-yl)benzyl)carbamoyl)pyrrolidin-3-yl L-isoleucinate Formate] | • | 1.6
Cc1ncsc1-c1ccc(CNC(=O)[C@@H]2C[C@@H](O)CN2C(=O)[C@@H](NC(=O)COCCOCCOCCOCC(=O)Nc2ccc([C@@H]3c4[nH]c5ccccc5c4C[C@@H](C)N3CC(C)(C)F)cc2)C(C)(C)C)cc1 [Example 55, N^1-(4-((1R,3R)-2-(2-fluoro-2-methylpropyl)-3-methyl-2,3,4,9-tetrahydro-1H-pyrido[3,4-b]indol-1-yl)phenyl)-N^14—((S)-1-((2S,4R)-4-hydroxy-2-((4-(4-methylthiazol-5-yl)benzyl)carbamoyl)pyrrolidin-1-yl)-3,3-dimethyl-1-oxobutan-2-yl)-3,6,9,12-tetraoxatetradecanediamide, Trifluoroacetic Acid] | • | 1.2
Cc1ncsc1-c1ccc(CNC(=O)[C@@H]2C[C@@H](O)CN2C(=O)[C@@H](NC(=O)COCCOCCOCCOc2cc(F)c([C@@H]3c4[nH]c5ccccc5c4C[C@@H](C)N3CC(F)(F)F)c(F)c2)C(C)(C)C)cc1 [Example 95, (2S,4R)-1-((S)-2-(tert-Butyl)-14-(3,5-difluoro-4-((1R,3R)-3-methyl-2-(2,2,2-trifluoroethyl)-2,3,4,9-tetrahydro-1H-pyrido[3,4-b]indol-1-yl)phenoxy)-4-oxo-6,9,12-trioxa-3-azatetradecanoyl)-4-hydroxy-N-(4-(4-methylthiazol-5-yl)benzyl)pyrrolidine-2-carboxamide] | •• | 0.4
Cc1ncsc1-c1ccc(CNC(=O)[C@@H]2C[C@@H](O)CN2C(=O)[C@@H](NC(=O)COCCOCCNC(=O)/C=C/c2cc(F)c([C@@H]3c4[nH]c5ccccc5c4C[C@@H](C)N3CC(C)(C)F)c(F)c2)C(C)(C)C)cc1 [Example 58, (2S,4R)-1-((S,E)-2-(tert-butyl)-15-(3,5-difluoro-4-((1R,3R)-2-(2-fluoro-2-methylpropyl)-3-methyl-2,3,4,9-tetrahydro-1H-pyrido[3,4-b]indol-1-yl)phenyl)-4,13-dioxo-6,9-dioxa-3,124-diazapentadec-4-enoyl)-4-hydroxy-N-(4-(4-methylthiazol-5-yl)benzyl)pyrrolidine-2-carboxamide, Trifluoroacetic Acid] | • | 0.4
Cc1ncsc1-c1ccc(CNC(=O)[C@@H]2C[C@@H](O)CN2C(=O)[C@@H](NC(=O)c2cnn(CCOCCNC(=O)/C=C/c3cc(F)c([C@@H]4c5[nH]c6ccccc6c5C[C@@H](C)N4CC(C)(C)F)c(F)c3)c2)C(C)(C)C)cc1 [Example 64, 1-(2-(2-((E)-3-(3,5-difluoro-4-((1R,3R)-2-(2-fluoro-2-methylpropyl)-3-methyl-2,3,4,9-tetrahydro-1H-pyrido[3,4-b]indol-1-yl)phenyl)acrylamido)ethoxy)ethyl)-N—((S)-1-((2S,4R)-4-hydroxy-2-((4-(4-methylthiazol-5-yl)benzyl)carbamoyl)pyrrolidin-5-yl)-3,3-dimethyl-1-oxobutan-2-yl)-1H-pyrazole-4-carboxamide, Trifluoroacetic Acid] | • | 0.5
Cc1ncsc1-c1ccc(CNC(=O)[C@@H]2C[C@@H](O)CN2C(=O)[C@@H](NC(=O)COCCOCCCCCOc2cc(F)c([C@@H]3c4[nH]c5ccccc5c4C[C@@H](C)N3CC(C)(C)F)c(F)c2)C(C)(C)C)cc1 [Example 97, (2S,4R)-1-((S)-2-(2-(2-((5-(3,5-Difluoro-4-((1R,3R)-2-(2-fluoro-2-methylpropyl)-3-methyl-2,3,4,9-tetrahydro-1H-pyrido[3,4-b]indol-1-yl)phenoxy)pentyl)oxy)ethoxy)acetamido)-3,3-dimethylbutanoyl)-4-hydroxy-N-(4-(4-methylthiazol-5-yl)benzyl)pyrrolidine-2-carboxamide] | •• | 0.8
